In patent EP4591860A1, “OPHTHALMIC PHARMACEUTICAL COMPOSITION FOR THE PREVENTION AND TREATMENT OF DRY EYE SYNDROME” (FB Vision S.p.A., priority 2024, dated 2025):
“Also recorded” adds a separate entry of the source.

Tests used:
Format in all cases: cell-based, human
[1] = system: NF-kβ p65; assay: NF-kβ p65 DNA binding activity test (TransAM ELISA) in LPS-stimulated HCEC; settings: 500 ng/ml LPS, 12 hours; PGB 100 µg/ml, HA 100 µg/ml or combination
Description: To evaluate the ability of the synergistic composition of the invention to inhibit NF-kβ activity in corneal cells, the NF-kβ p65 DNA Binging activity test was used with the ELISA kit of the TransAM p65 transcription factor (Active Motif, Carlsbad, CA).
HCEC cells were stimulated with 500 ng/ml LPS in the presence and absence of PGB 100 µg/ml, HA 100 µg/ml or a combination of PGB+HA for 12 hours, as described here.
Subsequently, the DNA binding activity of NF-kβ p65 was determined. 12 hours after stimulation with LPS markedly promoted the DNA-binding activity of NF-kβ p65 and the expression of the pro-inflammatory cytokines IL-1β, IL-6 and TNF-α.

[2] = system: IL-1β; assay: LPS-stimulated cytokine secretion in HCEC (ELISA); settings: 500 ng/mL LPS 24-hour; preincubation 1h; 100 µg/ml each, combination in 1/1 ratio
Description: (§1) IL-1b, IL-6 and TNF-a were detected with ELISA kits purchased from Abcam, Cambridge (MA) USA. Data are expressed as mean ± SEM, n=4; *p<0.001 with respect to LPS, **p<0.001 with respect to PGB or HA alone.
(§2) 24-hour exposure of HCECs to 500 ng/mL LPS induced maximal secretion of IL-1β, IL-6, and TNF-α, all of which are released in small amounts under basal conditions, as shown in Figure 22.

[3] = system: TNF-α; assay: LPS-stimulated cytokine secretion in HCEC (ELISA); settings: 500 ng/mL LPS 24-hour; preincubation 1h; 100 µg/ml each, combination in 1/1 ratio
Description: as §1, §2

[4] = system: IL-6; assay: LPS-stimulated cytokine secretion in HCEC (ELISA); settings: 500 ng/mL LPS 24-hour; preincubation 1h; 100 µg/ml each, combination in 1/1 ratio
Description: as §1, §2

[5] = system: HCEC cells; assay: MTT cell viability assay
Description: The primary culture of HCEC (cat. PCS-700-010) was purchased from the American Type Culture Collection (ATCC), Manassas, VA, USA.
The cells were resuspended in basal medium for corneal epithelial cells (devoid of serum and calcium) and supplemented with a growth kit provided by ATCC.
The cells were seeded at a density of 8 × 10^3 cells/well in a 96-well plate and cultured overnight. The cells were then treated with PGB or HA at different concentrations for 24 hours or with empty medium (control). After gently washing them with PBS, the cells were incubated with 0.5 mg/ml MTT solution in the dark for 4 hours. After removing the supernatant, DMSO was added to solubilize the formazan. Absorbance at 570 nm was measured with an ELISA reader (Multiskan MK3) for cell viability.

For `CC(C)C[C@H](CN)CC(=O)O` [PGB, (S)-3-(aminomethyl)-5-methylhexanoic acid], the “DNA-binding activity of NF-kβ p65” value [1] was “lower DNA-binding activity”, the “LPS-stimulated secretion of IL-1β” value [2] was “significantly reduced” and the “LPS-stimulated secretion of TNF-α” value [3] was “significantly reduced”. The “LPS-stimulated secretion of IL-6” value [4] was “significantly reduced”, the “cell viability (MTT)” value ([5]; 24 hours, 1000 µg/ml) was “a certain reduction in cell viability” and the “cell viability (MTT), toxicity” value ([5]; 24 hours, 10, 50, 100, 200 µg/ml) was “no evidence of toxicity; also recorded: did not show toxicity”.
